From US20140243403A1, “TREATING COLORECTAL, PANCREATIC, AND LUNG CANCER” (The General Hospital Corporation, priority 2011, published 2014)
pIC50: −log10 of the molar value.

Assays:
Experiment in all cases: Cellular proliferation and viability, CRC cell line panel
Type in all cases: cell-based, human
COLO-206F cells = details: KRAS WT, BRAF V600E, 3 days post-treatment
Experimental: (§1) (A) IC50 values (μM) for effects on cellular proliferation and viability with the TAK1 kinase inhibitor 5z-7-oxozeaenol in a panel of colon cancer cell lines that have been genotyped as KRAS mutant (KRAS-independent—circles or KRAS-dependent—squares), BRAF mutant (triangles) or wild-type for both KRAS and BRAF (OTHER—diamonds). Effects on growth were measured 3 days post-treatment. Data are represented as the mean of 3 independent experiments and error bars indicate the median±interquartile range. *denotes p<0.00001; n.s.—not significant.
(§2) To further validate TAK1 as a candidate therapeutic target in this context, a potent and selective TAK1 kinase inhibitor, 5Z-7-oxozeaenol (Rawlins et al., 1999), was used. Sensitivity to 5Z-7-oxozeaenol was tested in a panel of 47 colon cancer cell lines with various genotypes (FIGS. 3A and 9A). KRAS and BRAF genotypes were either procured from the Sanger Institute's Catalog of Somatic Mutations (COSMIC) or determined by targeted resequencing (Table 2). KRAS mutation status was determined as described above; the same methods were used to determine the mutation states of BRAF. BRAF exon15 was sequenced with TCATAATGCTTGCTCTGATAGGA (forward; SEQ ID NO:3) and GGCCAAAAATTTAATCAGTGG (reverse; SEQ ID NO:4).

SKCO1 cells = details: KRAS G12V (KRAS-dependent), BRAF WT, APC del, CTNNB1 WT, 3 days post-treatment
Experimental: as §1, §2

HCC56 cells = details: KRAS G12V, BRAF WT, 3 days post-treatment
Experimental: as §1, §2

CoCM-1 cells = details: KRAS WT, BRAF WT, APC WT, CTNNB1 WT, 3 days post-treatment
Experimental: as §1, §2

MDST8 cells = details: KRAS WT, BRAF V600K, APC nd, CTNNB1 WT, 3 days post-treatment
Experimental: as §1, §2

LoVo cells = details: KRAS G13D (KRAS-dependent), BRAF WT, APC del, CTNNB1 WT, 3 days post-treatment
Experimental: as §1, §2

HCT-116 cells = details: KRAS G13D, BRAF WT, APC WT, CTNNB1 S45del, 3 days post-treatment
Experimental: as §1, §2

HT115 cells = details: KRAS WT, BRAF WT, APC WT, CTNNB1 WT, 3 days post-treatment
Experimental: as §1, §2

RCM-1 cells = details: KRAS G12V (KRAS-dependent), BRAF WT, APC del, CTNNB1 WT, 3 days post-treatment
Experimental: as §1, §2

HCT-15 cells = details: KRAS G13D, BRAF WT, APC del, CTNNB1 WT, 3 days post-treatment
Experimental: as §1, §2

COLO-205 cells = details: KRAS WT, BRAF V600E, APC del, CTNNB1 WT, 3 days post-treatment
Experimental: as §1, §2

Hs 257.T cells = details: KRAS G13D, BRAF WT, 3 days post-treatment
Experimental: as §1, §2

HT29 cells = details: KRAS WT, BRAF V600E, APC del, CTNNB1 WT, 3 days post-treatment
Experimental: as §1, §2

HRT-18 cells = details: KRAS G13D, BRAF WT, APC del, CTNNB1 WT, 3 days post-treatment
Experimental: as §1, §2

OUMS-23 cells = details: KRAS WT, BRAF WT, 3 days post-treatment
Experimental: as §1, §2

LS-174T cells = details: KRAS G12D, BRAF WT, APC WT, CTNNB1 S45A, 3 days post-treatment
Experimental: as §1, §2

DLD-1 cells = details: KRAS G13D, BRAF WT, APC del, CTNNB1 WT, 3 days post-treatment
Experimental: as §1, §2

CL-11 cells = details: KRAS V14I (KRAS-dependent), BRAF WT, CTNNB1 WT, 3 days post-treatment
Experimental: as §1, §2

SW948 cells = details: KRAS Q61L, BRAF WT, APC del, CTNNB1 WT, 3 days post-treatment
Experimental: as §1, §2

CCK-81 cells = details: KRAS WT, BRAF WT, 3 days post-treatment
Experimental: as §1, §2

RKO cells = details: KRAS WT, BRAF V600E, APC del, CTNNB1 WT, 3 days post-treatment
Experimental: as §1, §2

SW1417 cells = details: KRAS WT, BRAF V600E, APC del, CTNNB1 WT, 3 days post-treatment
Experimental: as §1, §2

C2BBe1 cells = details: KRAS WT, BRAF WT, APC del, CTNNB1 WT, 3 days post-treatment
Experimental: as §1, §2

CL-34 cells = details: KRAS WT, BRAF V600E, 3 days post-treatment
Experimental: as §1, §2

CaR-1 cells = details: KRAS WT, BRAF WT, 3 days post-treatment
Experimental: as §1, §2

COLO-741 cells = details: KRAS WT, BRAF V600E, 3 days post-treatment
Experimental: as §1, §2

SW837 cells = details: KRAS G12C, BRAF WT, APC del, CTNNB1 WT, 3 days post-treatment
Experimental: as §1, §2

Caco-2 cells = details: KRAS WT, BRAF V600E, CTNNB1 WT, 3 days post-treatment
Experimental: as §1, §2

Gp5D cells = details: KRAS G12D (KRAS-dependent), BRAF WT, APC del, CTNNB1 WT, 3 days post-treatment
Experimental: as §1, §2

SW620 cells = details: KRAS G12V (KRAS-dependent), BRAF WT, APC del, CTNNB1 WT, 3 days post-treatment
Experimental: as §1, §2

Molecule `COc1cc(O)c2c(c1)/C=C/C[C@H](O)[C@H](O)C(=O)/C=C\C[C@H](C)OC2=O` [5Z-7-oxozeaenol] has a pIC50 (COLO-206F cells) of 6.29, a pIC50 (SKCO1 cells) of 7.59 and a pIC50 (HCC56 cells) of 5.63. It also gave a pIC50 (CoCM-1 cells) of 6.03, a pIC50 (MDST8 cells) of 6.65 and a pIC50 (LoVo cells) of 6.97. The pIC50 (HCT-116 cells) was 5.62, the pIC50 (HT115 cells) was 5.88 and the pIC50 (RCM-1 cells) was 6.56. For the same molecule, the pIC50 (HCT-15 cells) was 5.09, the pIC50 (COLO-205 cells) was 5.88 and the pIC50 (Hs 257.T cells) was 5.49. The pIC50 (HT29 cells) was 5.10, the pIC50 (HRT-18 cells) was 4.22 and the pIC50 (OUMS-23 cells) was 4.32. For the same molecule, the pIC50 (LS-174T cells) was 5.21, the pIC50 (DLD-1 cells) was 5.08 and the pIC50 (CL-11 cells) was 5.94. For the same molecule, the pIC50 (SW948 cells) was 5.63, the pIC50 (CCK-81 cells) was 6.39 and the pIC50 (RKO cells) was 5.96. For the same molecule, the pIC50 (SW1417 cells) was 5.91, the pIC50 (C2BBe1 cells) was 5.03 and the pIC50 (CL-34 cells) was 6.31. The pIC50 (CaR-1 cells) was 5.22, the pIC50 (COLO-741 cells) was 5.74 and the pIC50 (SW837 cells) was 5.23. For the same molecule, the pIC50 (Caco-2 cells) was 5.84, the pIC50 (Gp5D cells) was 5.75 and the pIC50 (SW620 cells) was 7.03.
